Laboratory results from US20060199240A1, “Biosensor and method comprising enzymes immobilized on semiconductors” (Yissum Research Development Company of the Hebrew …, priority 2002, published 2006).

Legend:
[1] = target: acetylcholine esterase (AChE) (Electrophorus electricus, UniProt O42275); format: biochemical
Description: Data were recorded in 0.1 M phosphate buffer, pH=8.1, under argon.
One of the products of the hydrolysis of acetylthiocholine is thiocholine (2), which is an electron donor.
FIG. 2A depicts the photocurrent action spectra resulting in the photoirradiation of the system in the presence of different concentrations of acetylthiocholine. […] Thus, the photocurrent generation in the system is attributed to the AChE catalyzed hydrolysis of acetylthiocholine, (1), to acetate and thiocholine, (2). The latter product acts as donor for the holes generated in the valence band upon excitation of the CdS nanoparticles. Thus, oxidation of thiocholine by the holes eliminates the electron-hole recombination, and thus a steady-state photocurrent is generated.

[2] = substrate: CC(=O)SCC[N+](C)(C)C; assay: KM of AChE towards acetylthiocholine in solution; format: biochemical; conditions: other: AChE in solution
Description: The KM value of the AChE linked to the CdS nanoparticles towards acetylthiocholine, (1), is KM=5 mM. This value is higher than the KM=0.13 mM of ACHE and (1) in solution. The higher KM value for the nanoparticle-immobilized ACHE may be attributed to slight deactivation and structural perturbation of the biocatalyst as a result of surface linkage.

Chain of acetylcholine esterase (AChE) (O42275 24-633): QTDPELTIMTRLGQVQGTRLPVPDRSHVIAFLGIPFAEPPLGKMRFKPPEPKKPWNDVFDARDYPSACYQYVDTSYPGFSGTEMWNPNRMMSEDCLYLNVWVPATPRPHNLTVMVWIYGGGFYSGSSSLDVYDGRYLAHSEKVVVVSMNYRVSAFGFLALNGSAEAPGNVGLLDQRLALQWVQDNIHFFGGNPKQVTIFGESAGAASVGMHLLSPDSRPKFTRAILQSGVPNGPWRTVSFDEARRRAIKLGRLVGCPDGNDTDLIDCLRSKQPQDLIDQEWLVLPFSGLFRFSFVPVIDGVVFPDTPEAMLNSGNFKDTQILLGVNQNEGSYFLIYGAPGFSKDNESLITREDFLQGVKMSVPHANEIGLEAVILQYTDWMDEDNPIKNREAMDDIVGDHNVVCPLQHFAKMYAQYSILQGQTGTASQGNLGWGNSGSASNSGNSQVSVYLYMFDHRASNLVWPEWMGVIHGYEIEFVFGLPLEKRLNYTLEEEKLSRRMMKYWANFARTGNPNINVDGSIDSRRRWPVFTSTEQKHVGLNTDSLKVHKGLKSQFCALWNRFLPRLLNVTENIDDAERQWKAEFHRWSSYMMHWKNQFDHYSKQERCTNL

Molecule: C=CC[N+](C)(C)c1ccc(CCC(=O)CCc2ccc([N+](C)(C)CC=C)cc2)cc1 [(3), 1,5-bis(4-allyldimethylammoniumphenyl)pentane-3-one dibromide]
- effect on photocurrent with increasing concentration [1]: decreases the photocurrent
- mode of inhibition [1]: competitive inhibitor
- reversibility: photocurrent after washing off the inhibitor [1]: almost restores the initial photocurrent

B1: AChE (Homo sapiens) (protein)
chain: EGREDAELLVTVRGGRLRGIRLKTPGGPVSAFLGIPFAEPPMGPRRFLPPEPKQPWSGVVDATTFQSVCYQYVDTLYPGFEGTEMWNPNRELSEDCLYLNVWTPYPRPTSPTPVLVWIYGGGFYSGASSLDVYDGRFLVQAERTVLVSMNYRVGAFGFLALPGSREAPGNVGLLDQRLALQWVQENVAAFGGDPTSVTLFGESAGAASVGMHLLSPPSRGLFHRAVLQSGAPNGPWATVGMGEARRRATQLAHLVGCPPGGTGGNDTELVACLRTRPAQVLVNHEWHVLPQESVFRFSFVPVVDGDFLSDTPEALINAGDFHGLQVLVGVVKDEGSYFLVYGAPGFSKDNESLISRAEFLAGVRVGVPQVSDLAAEAVVLHYTDWLHPEDPARLREALSDVVGDHNVVCPVAQLAGRLAAQGARVYAYVFEHRASTLSWPLWMGVPHGYEIEFIFGIPLDPSRNYTAEEKIFAQRLMRYWANFARTGDPNEPRDPKAPQWPPYTAGAQQYVSLDLRPLEVRRGLRAQACAFWNRFLPKLLSATDTLDEAERQWKAEFHRWSSYMVHWKNQFDHYSKQDRCSDL
- Km [2]: 130 µM
